From publication PMC12073402, “A Selective MAP3K1 Inhibitor Facilitates Discovery of NPM1 as a Member of the Network” (Molecules, 2025)

Tests used:
Assay in all cases: KiNativ kinome profiling in PANC-1 lysate
Format in all cases: binding
PIP5K1A = target: T1, PIP5K1A (Homo sapiens, UniProt Q99755); settings: ATP
T1 construct: endogenous in cells; host or cells: PANC-1 cell lysate
From the text: (§1) To assess target engagement and selectivity, we opted to conduct a kinome screen (KiNativ) in PANC-1 cell lysates. This chemical proteomics (chemoproteomics) methodology allows for the evaluation of small-molecule binding to protein kinases in native systems such as cell lysates. KiNativ utilizes a soluble chemical probe comprising ATP linked to biotin through an acyl-phosphate bond. The probe covalently modifies conserved lysine residues found in the ATP binding site of essentially all protein kinases (Figure 2A). To profile a kinase inhibitor, cell lysates are treated with a vehicle control or inhibitor prior to addition of the desthiobiotin ATP probe. The ATP probe occupies the ATP binding site in the kinase, which enables the conserved lysines to be biotinylated. […] The cell lysates are digested with a protease (trypsin), biotinylated peptides are affinity-enriched on streptavidin beads, and the labeled peptides are analyzed by liquid chromatography–tandem MS (Figure 2B). If an inhibitor binds to a kinase, it competes with the ATP, thus resulting in a loss of that kinase-associated peptide signal, allowing for the quantitative measurement of inhibitor binding. Unlike recombinant enzyme assays, KiNativ IC50 values are a direct measure of active site binding instead of enzymatic activity.
(§2) Kinome profiling quantified the activity of 51-106 against >300 kinases in the PANC-1 cells. The results summarized in Figure 2C are the average of duplicate control and duplicate treated samples with 5 μM of 51-106 or DMSO.
(§3) KiNativ assay with 51-106.
(§4) ATP Loop: ATP binding loop
(§5) Activation Loop: Activation loop
(§6) ATP: ATP site in non-canonical kinase (e.g. lipid kinase)
(§7) Protein Kinase Domain: Other lysine within kinase domain, possibly not in ATP binding site
(§8) Other: Labeling of residue outside of the protein kinase domain, possibly not in ATP binding site
(§9) No change. NB = No Binding (≤ 0)
(§10) >100% increase in MS signal (>2 fold increase)
(§11) Data points inhibited […] & not considered significant are left uncolored
(§12) Note: This KiNativ dataset is the result of an analysis of duplicate treated samples and control samples.
(§13) The % changes in MS signals being reported are statistically significant (Student T -test score < 0.04)

AAK1 = target: T2, AAK1 (Homo sapiens, UniProt Q2M2I8); settings: Lys2
T2 construct: endogenous in cells; host or cells: PANC-1 cell lysate
From the text: as §1, §2, §3, §4, §5, §6, §7, §8, §9, §10, §11, §12, §13

PIP5K3 = target: T3, PIP5K3 (Homo sapiens, UniProt Q9Y2I7); settings: ATP
T3 construct: endogenous in cells; host or cells: PANC-1 cell lysate
From the text: as §1, §2, §3, §4, §5, §6, §7, §8, §9, §10, §11, §12, §13

MAP3K4 = target: T4, MAP3K4 (Homo sapiens, UniProt Q9Y6R4)
T4 construct: endogenous in cells; host or cells: PANC-1 cell lysate
T4 sequence (Q9Y6R4 whole entry): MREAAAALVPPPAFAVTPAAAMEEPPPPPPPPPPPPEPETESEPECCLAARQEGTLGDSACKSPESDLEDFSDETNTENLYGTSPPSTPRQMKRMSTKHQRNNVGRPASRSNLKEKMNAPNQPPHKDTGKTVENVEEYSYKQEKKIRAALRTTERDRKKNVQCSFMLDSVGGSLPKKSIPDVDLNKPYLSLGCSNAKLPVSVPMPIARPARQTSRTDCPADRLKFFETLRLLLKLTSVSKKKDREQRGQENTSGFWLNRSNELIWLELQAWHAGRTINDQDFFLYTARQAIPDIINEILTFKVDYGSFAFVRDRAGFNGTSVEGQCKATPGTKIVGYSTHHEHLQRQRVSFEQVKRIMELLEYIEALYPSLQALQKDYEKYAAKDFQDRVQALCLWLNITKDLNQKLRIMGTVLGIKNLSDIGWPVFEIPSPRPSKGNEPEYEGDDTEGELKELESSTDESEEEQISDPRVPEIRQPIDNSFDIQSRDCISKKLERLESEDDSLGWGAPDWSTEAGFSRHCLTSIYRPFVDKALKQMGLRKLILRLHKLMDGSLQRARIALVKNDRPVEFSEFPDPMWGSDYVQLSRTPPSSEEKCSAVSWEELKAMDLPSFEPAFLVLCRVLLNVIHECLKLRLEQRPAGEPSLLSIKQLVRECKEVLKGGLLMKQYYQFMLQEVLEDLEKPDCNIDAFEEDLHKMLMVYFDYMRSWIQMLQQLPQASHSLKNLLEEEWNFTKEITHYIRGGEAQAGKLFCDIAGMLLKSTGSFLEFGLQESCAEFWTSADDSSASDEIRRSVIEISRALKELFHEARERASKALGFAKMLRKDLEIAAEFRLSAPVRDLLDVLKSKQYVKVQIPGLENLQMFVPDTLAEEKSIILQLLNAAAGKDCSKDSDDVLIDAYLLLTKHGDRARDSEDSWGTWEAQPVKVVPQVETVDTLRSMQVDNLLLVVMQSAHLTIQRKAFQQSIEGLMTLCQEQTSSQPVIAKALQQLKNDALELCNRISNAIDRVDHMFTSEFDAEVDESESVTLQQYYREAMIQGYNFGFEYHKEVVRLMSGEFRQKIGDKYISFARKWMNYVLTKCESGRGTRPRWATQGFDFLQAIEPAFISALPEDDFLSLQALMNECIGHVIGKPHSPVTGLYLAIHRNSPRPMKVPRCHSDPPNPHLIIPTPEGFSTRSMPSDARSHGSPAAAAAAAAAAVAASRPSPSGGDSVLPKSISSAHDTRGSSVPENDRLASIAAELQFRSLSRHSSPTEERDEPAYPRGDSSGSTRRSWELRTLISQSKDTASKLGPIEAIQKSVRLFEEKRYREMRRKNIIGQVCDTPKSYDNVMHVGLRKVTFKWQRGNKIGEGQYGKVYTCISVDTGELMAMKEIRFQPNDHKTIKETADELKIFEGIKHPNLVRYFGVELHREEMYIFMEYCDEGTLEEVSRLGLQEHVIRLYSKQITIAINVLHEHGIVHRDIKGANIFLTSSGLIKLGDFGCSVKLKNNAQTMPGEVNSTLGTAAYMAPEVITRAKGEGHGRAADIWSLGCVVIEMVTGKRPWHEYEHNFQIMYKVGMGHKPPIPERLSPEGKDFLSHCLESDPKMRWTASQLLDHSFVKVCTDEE
From the text: as §1, §2, §3, §4, §5, §6, §7, §8, §9, §10, §11, §12, §13

AKT1 = target: T5, AKT1 (Homo sapiens, UniProt P31749); settings: ATP Loop
T5 construct: endogenous in cells; host or cells: PANC-1 cell lysate
From the text: as §1, §2, §3, §4, §5, §6, §7, §8, §9, §10, §11, §12, §13

TGFbR2 = target: T6, TGFbR2 (Homo sapiens, UniProt P37173); settings: Lys2
T6 construct: endogenous in cells; host or cells: PANC-1 cell lysate
From the text: as §1, §2, §3, §4, §5, §6, §7, §8, §9, §10, §11, §12, §13

NLK = target: T7, NLK (Homo sapiens, UniProt Q9UBE8); settings: Lys2
T7 construct: endogenous in cells; host or cells: PANC-1 cell lysate
From the text: as §1, §2, §3, §4, §5, §6, §7, §8, §9, §10, §11, §12, §13

ROCK1, ROCK2 = settings: 5 µM
From the text: as §1, §2, §3, §4, §5, §6, §7, §8, §9, §10, §11, §12, §13

SLK = target: T8, SLK (Homo sapiens, UniProt Q9H2G2)
T8 construct: endogenous in cells; host or cells: PANC-1 cell lysate
From the text: as §1, §2, §3, §4, §5, §6, §7, §8, §9, §10, §11, §12, §13

ITPK1 = target: T9, ITPK1 (Homo sapiens, UniProt Q13572); settings: ATP Loop
T9 construct: we opted to conduct a kinome screen (KiNativ) in PANC-1 cell lysates; endogenous in cells; host or cells: PANC-1 cell lysate
T9 sequence (Q13572 whole entry): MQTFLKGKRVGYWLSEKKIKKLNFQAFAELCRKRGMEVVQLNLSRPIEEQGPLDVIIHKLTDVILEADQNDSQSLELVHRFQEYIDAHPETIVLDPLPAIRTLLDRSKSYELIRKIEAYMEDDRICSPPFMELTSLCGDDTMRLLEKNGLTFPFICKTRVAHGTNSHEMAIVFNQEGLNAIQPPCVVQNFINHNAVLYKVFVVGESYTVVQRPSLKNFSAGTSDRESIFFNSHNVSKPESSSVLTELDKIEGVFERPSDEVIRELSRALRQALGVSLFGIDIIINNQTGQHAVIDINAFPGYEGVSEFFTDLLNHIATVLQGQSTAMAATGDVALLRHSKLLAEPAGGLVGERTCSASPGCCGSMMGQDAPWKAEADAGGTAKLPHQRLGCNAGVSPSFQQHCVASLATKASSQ
From the text: as §1, §2, §3, §4, §5, §6, §7, §8, §9, §10, §11, §12, §13

PRP4 = target: T10, PRP4 (Homo sapiens, UniProt Q13523); settings: Lys2
T10 construct: endogenous in cells; host or cells: PANC-1 cell lysate
From the text: as §1, §2, §3, §4, §5, §6, §7, §8, §9, §10, §11, §12, §13

NEK4 = target: T11, NEK4 (Homo sapiens, UniProt P51957); settings: Lys2
T11 construct: endogenous in cells; host or cells: PANC-1 cell lysate
From the text: as §1, §2, §3, §4, §5, §6, §7, §8, §9, §10, §11, §12, §13

NEK2 = target: T12, NEK2 (Homo sapiens, UniProt P51955); settings: Lys2
T12 construct: endogenous in cells; host or cells: PANC-1 cell lysate
From the text: as §1, §2, §3, §4, §5, §6, §7, §8, §9, §10, §11, §12, §13

EphA2 = target: T13, EphA2 (Homo sapiens, UniProt P29317); settings: ATP Loop
T13 construct: endogenous in cells; host or cells: PANC-1 lysate
From the text: as §1, §2, §3, §4, §5, §6, §7, §8, §9, §10, §11, §12, §13

RSK2 domain2 = target: T14, RSK2 domain2 (Homo sapiens, UniProt P51812); settings: Lys2
T14 construct: endogenous in cells; host or cells: PANC-1 cell lysate
T14 sequence (P51812 whole entry, the tested form may be a part): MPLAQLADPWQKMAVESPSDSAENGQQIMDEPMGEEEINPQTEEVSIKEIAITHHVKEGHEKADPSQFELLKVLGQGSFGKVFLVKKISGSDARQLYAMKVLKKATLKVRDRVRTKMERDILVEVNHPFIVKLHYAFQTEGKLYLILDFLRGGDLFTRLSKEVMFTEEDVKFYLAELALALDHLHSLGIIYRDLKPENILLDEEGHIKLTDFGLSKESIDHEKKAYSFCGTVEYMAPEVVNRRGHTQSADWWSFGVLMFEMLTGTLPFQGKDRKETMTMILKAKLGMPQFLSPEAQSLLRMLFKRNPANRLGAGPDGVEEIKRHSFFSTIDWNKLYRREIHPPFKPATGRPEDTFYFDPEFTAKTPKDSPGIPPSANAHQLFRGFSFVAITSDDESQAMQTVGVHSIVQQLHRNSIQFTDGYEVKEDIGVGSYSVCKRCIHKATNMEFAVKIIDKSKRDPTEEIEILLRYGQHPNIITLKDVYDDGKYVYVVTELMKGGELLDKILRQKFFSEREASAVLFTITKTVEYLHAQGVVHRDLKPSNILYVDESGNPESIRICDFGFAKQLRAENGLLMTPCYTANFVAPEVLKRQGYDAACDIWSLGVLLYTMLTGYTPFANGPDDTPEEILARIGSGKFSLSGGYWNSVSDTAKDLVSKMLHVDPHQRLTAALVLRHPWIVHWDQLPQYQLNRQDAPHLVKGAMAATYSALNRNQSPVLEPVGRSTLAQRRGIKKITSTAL
From the text: as §1, §2, §3, §4, §5, §6, §7, §8, §9, §10, §11, §12, §13

GCN2 domain2 = target: T15, GCN2 domain2 (Homo sapiens, UniProt Q9P2K8)
T15 construct: we opted to conduct a kinome screen (KiNativ) in PANC-1 cell lysates; endogenous in cells; host or cells: PANC-1 cell lysate
T15 sequence (Q9P2K8 whole entry, the tested form may be a part): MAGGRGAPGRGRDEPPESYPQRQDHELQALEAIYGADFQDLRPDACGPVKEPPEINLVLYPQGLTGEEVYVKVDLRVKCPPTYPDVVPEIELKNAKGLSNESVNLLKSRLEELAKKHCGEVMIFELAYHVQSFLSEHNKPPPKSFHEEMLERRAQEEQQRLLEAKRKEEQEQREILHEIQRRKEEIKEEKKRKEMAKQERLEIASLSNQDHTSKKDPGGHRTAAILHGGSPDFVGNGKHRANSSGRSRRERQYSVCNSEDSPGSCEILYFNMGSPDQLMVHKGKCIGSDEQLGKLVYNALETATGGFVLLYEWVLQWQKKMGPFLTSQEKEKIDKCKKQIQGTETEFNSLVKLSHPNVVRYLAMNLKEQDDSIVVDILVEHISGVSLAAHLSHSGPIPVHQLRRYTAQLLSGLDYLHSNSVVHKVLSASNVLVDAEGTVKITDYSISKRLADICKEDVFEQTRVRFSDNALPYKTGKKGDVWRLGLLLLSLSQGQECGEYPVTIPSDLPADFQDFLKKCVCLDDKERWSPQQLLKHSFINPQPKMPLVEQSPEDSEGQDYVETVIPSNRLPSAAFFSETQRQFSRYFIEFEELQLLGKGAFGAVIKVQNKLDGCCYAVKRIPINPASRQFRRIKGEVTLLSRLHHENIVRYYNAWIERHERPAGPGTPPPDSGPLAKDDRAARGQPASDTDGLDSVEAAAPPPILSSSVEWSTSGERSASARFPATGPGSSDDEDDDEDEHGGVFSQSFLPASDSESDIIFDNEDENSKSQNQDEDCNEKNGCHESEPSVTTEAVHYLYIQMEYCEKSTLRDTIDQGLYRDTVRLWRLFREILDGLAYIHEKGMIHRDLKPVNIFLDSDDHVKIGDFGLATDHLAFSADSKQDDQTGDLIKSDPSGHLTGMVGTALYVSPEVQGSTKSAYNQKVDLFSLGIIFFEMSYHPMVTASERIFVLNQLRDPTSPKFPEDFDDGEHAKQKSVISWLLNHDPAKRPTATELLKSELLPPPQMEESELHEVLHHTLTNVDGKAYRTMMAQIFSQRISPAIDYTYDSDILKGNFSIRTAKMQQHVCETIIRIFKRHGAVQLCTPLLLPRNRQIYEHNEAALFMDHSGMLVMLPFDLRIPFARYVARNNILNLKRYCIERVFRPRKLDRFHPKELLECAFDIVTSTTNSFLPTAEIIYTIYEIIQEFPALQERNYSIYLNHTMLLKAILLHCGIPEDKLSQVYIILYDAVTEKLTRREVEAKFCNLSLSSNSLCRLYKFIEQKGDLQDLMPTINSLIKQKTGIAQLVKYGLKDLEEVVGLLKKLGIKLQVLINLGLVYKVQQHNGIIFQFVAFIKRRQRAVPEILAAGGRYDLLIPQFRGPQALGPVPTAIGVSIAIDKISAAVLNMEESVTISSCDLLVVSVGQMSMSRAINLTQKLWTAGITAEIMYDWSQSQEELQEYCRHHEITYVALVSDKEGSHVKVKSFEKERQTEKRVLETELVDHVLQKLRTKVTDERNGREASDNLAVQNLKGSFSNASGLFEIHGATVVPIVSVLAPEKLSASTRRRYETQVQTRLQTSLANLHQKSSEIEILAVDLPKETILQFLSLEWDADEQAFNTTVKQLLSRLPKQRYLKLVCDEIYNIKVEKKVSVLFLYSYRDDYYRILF
From the text: as §1, §2, §3, §4, §5, §6, §7, §8, §9, §10, §11, §12, §13

MAST4 = target: T16, MAST4 (Homo sapiens, UniProt O15021); settings: Lys2
T16 construct: endogenous in cells; host or cells: PANC-1
From the text: as §1, §2, §3, §4, §5, §6, §7, §8, §9, §10, §11, §12, §13

eEF2K = target: T17, eEF2K (Homo sapiens, UniProt O00418); settings: ATP
T17 construct: endogenous in cells; host or cells: PANC-1 lysate
From the text: as §1, §2, §3, §4, §5, §6, §7, §8, §9, §10, §11, §12, §13

CASK = target: T18, CASK (Homo sapiens, UniProt O14936); settings: Lys1
T18 construct: endogenous in cells; host or cells: PANC-1 cell lysate
From the text: as §1, §2, §3, §4, §5, §6, §7, §8, §9, §10, §11, §12, §13

FRAP = target: T19, FRAP (Homo sapiens, UniProt P42345); settings: ATP
T19 construct: endogenous in cells; host or cells: PANC-1 lysate
From the text: as §1, §2, §3, §4, §5, §6, §7, §8, §9, §10, §11, §12, §13

MSK1 domain1 = target: T20, MSK1 domain1 (Homo sapiens, UniProt O75582); settings: Lys2
T20 construct: endogenous in cells; host or cells: PANC-1
From the text: as §1, §2, §3, §4, §5, §6, §7, §8, §9, §10, §11, §12, §13

CHK2 = target: T21, CHK2 (Homo sapiens, UniProt O96017)
T21 construct: endogenous in cells; host or cells: PANC-1 cell lysate
T21 sequence (O96017 whole entry): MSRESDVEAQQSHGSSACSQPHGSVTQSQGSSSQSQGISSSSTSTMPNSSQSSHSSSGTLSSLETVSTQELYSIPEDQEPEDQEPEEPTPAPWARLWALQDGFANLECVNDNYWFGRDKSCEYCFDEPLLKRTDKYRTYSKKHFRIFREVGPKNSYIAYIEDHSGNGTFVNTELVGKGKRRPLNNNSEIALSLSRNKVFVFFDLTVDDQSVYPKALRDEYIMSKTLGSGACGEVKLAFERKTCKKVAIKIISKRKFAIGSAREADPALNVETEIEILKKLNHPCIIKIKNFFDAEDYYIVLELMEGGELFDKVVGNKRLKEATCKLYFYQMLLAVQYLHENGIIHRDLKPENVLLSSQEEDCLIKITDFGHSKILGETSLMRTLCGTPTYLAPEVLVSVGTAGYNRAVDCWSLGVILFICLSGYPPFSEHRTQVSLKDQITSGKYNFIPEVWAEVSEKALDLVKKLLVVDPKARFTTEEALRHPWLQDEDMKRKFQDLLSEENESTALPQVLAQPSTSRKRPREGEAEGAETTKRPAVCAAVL
From the text: as §1, §2, §3, §4, §5, §6, §7, §8, §9, §10, §11, §12, §13

DGKH = target: T22, DGKH (Homo sapiens, UniProt Q86XP1); settings: ATP
T22 construct: endogenous in cells; host or cells: PANC-1 lysate
From the text: as §1, §2, §3, §4, §5, §6, §7, §8, §9, §10, §11, §12, §13

PI4K2B = target: T23, PI4K2B (Homo sapiens, UniProt Q8TCG2); settings: ATP
T23 construct: endogenous in cells; host or cells: PANC-1 cell lysate
From the text: as §1, §2, §3, §4, §5, §6, §7, §8, §9, §10, §11, §12, §13

RSK2 domain1 = target: T24, RSK2 domain1 (Homo sapiens, UniProt P51812)
T24 construct: endogenous in cells; host or cells: PANC-1 cell lysate
T24 sequence (P51812 whole entry, the tested form may be a part): as the sequence (P51812 whole entry, the tested form may be a part) above
From the text: as §1, §2, §3, §4, §5, §6, §7, §8, §9, §10, §11, §12, §13

SIK = target: T25, SIK (Homo sapiens, UniProt P57059); settings: Lys1
T25 construct: endogenous in cells; host or cells: PANC-1 cell lysate
From the text: as §1, §2, §3, §4, §5, §6, §7, §8, §9, §10, §11, §12, §13

YES = target: T26, YES (Homo sapiens, UniProt P07947); settings: Lys1
T26 construct: endogenous in cells; host or cells: PANC-1 cell lysate
From the text: as §1, §2, §3, §4, §5, §6, §7, §8, §9, §10, §11, §12, §13

## Cn1cc(-c2cnc3ccc(NC(=O)Nc4ccc(F)c(C(F)(F)F)c4)cc3n2)cn1 [51-106, 1-(4-Fluoro-3-(trifluoromethyl)phenyl)-3-(3-(1-methyl-1H-pyrazol-4-yl)quinoxalin-6-yl)urea]
PIP5K1A
  inhibition at 5 µM: 8.7%
AAK1
  inhibition at 5 µM: 3.5%
PIP5K3
  inhibition at 5 µM: ≤ 0%
MAP3K4; Lys1, VYTCISVDTGELMAMKEIR
  inhibition at 5 µM: 8.6%
MAP3K4; Lys2, DIKGANIFLTSSGLIK
  inhibition at 5 µM: 7.1%
AKT1
  inhibition at 5 µM: ≤ 0%
TGFbR2
  inhibition at 5 µM: 8.9%
NLK
  inhibition at 5 µM: 5.9%
ROCK1, ROCK2; Lys1, VYAMKLLSK
  % Inhibition: 11.9%
ROCK1, ROCK2; Lys2, DVKPDNMLLDK
  % Inhibition: NB (NB = No Binding (≤ 0))
SLK; Lys1, AQNKETSVLAAAKVIDTK
  inhibition at 5 µM: ≤ 0%
SLK; Lys2, DLKAGNILFTLDGDIK
  inhibition at 5 µM: 7%
ITPK1
  inhibition at 5 µM: ≤ 0%
PRP4
  inhibition at 5 µM: ≤ 0%
NEK4
  inhibition at 5 µM: 5.8%
NEK2
  inhibition at 5 µM: ≤ 0%
EphA2
  inhibition at 5 µM: ≤ 0%
RSK2 domain2
  inhibition at 5 µM: 5.7%
GCN2 domain2; Lys1, LDGCCYAVKR
  inhibition at 5 µM: 5.3%
GCN2 domain2; Lys2, DLKPVNIFLDSDDHVK
  inhibition at 5 µM: ≤ 0%
MAST4
  inhibition at 5 µM: ≤ 0%
eEF2K
  inhibition at 5 µM: 6.3%
CASK
  inhibition at 5 µM: ≤ 0%
FRAP
  inhibition at 5 µM: ≤ 0%
MSK1 domain1
  inhibition at 5 µM: ≤ 0%
CHK2; Lys1, VAIKIISK
  inhibition at 5 µM: 14.8%
CHK2; Lys2, DLKPENVLLSSQEEDCLIK
  inhibition at 5 µM: ≤ 0%
DGKH
  inhibition at 5 µM: ≤ 0%
PI4K2B
  inhibition at 5 µM: 6.4%
RSK2 domain1; ATP Loop, LTDFGLSKESIDHEKK
  inhibition at 5 µM: ≤ 0%
RSK2 domain1; Lys1, QLYAMKVLK
  inhibition at 5 µM: 23.6%
SIK
  inhibition at 5 µM: 23.3%
YES
  inhibition at 5 µM: 16%
